From patent US20220390432A1, “METHODS OF CHARACTERIZING AND UTILIZING AGENT-CONDENSATE INTERACTIONS” (Whitehead Institute for Biomedical Research, priority 2019, published 2022)
Entries after “also recorded” stand apart in the source; their conditions may differ.

Assays:
MED1 droplets = molecular target: T1, MED1 droplets (Homo sapiens, UniProt Q15648); experiment: In vitro droplet drug chase out experiment; format: binding; conditions: 100 μM FLTX1, 10-fold excess (1 mM) tamoxifen
T1 construct: MED1—amino acids 600-1581; 6xHis (N); made in house; host or cells: LOBSTR cells (E. coli)
Description: For chase-out experiments 5 μM labeled cisplatin-TR was added to a MED1 droplets reaction (10 μM MED1, 50 mM Tris-HCl pH 7.5, 10% glycerol, 1 mM DTT, 10% PEG) in order to form MED1 droplets concentrated with Cisplatin-TR. Unlabeled transplatin or unlabeled cisplatin (vehicle, 10 μM, 100 μM, or 500 μM) were added to the droplet mixture and the amount of labeled cisplatin-TR remaining in the droplet is measured after chase out. 100 μM fluorescent FLTX1 was added to a MED1 droplets reaction (10 μM MED1, 50 mM Tris-HCl pH 7.5, 10% glycerol, 1 mM DTT, 10% PEG) in order to form MED1 droplets concentrated with FLTX1.

[1] = test system: ERα-MED1 condensate at the Lac array in U2OS cells; experiment: Lac array assay with tethered ER, MED1 immunofluorescence; format: cell-based, human; conditions: for effect on ER/MED1 condensate at the Lac array: tethered ER, estrogen
Text: When the transcriptional apparatus is recruited to that site a mediator condensate is detectable by immunofluorescence (Middle) U20S-Lac cells were transfected with a construct expressing the Lac DBD fused to the ER LBD and GFP+/− a construct overexpressing MED1. […] (Right) Quantification of MED1 enrichment relative at the Lac array, error bars represent SD.
Constructs were assembled by NEB HIFI cloning in pSV2 mammalian expression vector containing an SV40 promoter driving expression of a mCherry-LacI fusion protein. The intrinsically disordered region of MED1, HP1α, or the activation domain of ESR1 was fused by the c-terminus to this recombinant protein, joined by the linker sequence […] (SEQ ID NO: 16). For experiments comparing FLTX1 enrichment at the array, U20S-Lac cells were plated onto chambered coverglass (1.5 Borosilicate Glass, Nunc Lab-Tek, 155409) and transfected with either MED1 IDR or HP1α constructs with lipofectamine 3000 (Thermofisher L3000015). After 24 hours, cells were treated with either 1 uM FLTX1 or vehicle (DMF). After 30 minutes, cells were imaged on the Zeiss LSM 880 confocal microscope with Airyscan detector with 63× objective at 37° C. For experiments with high MED1, cells grown in DMEM were plated on glass coverslips and transfected using lipofectamine 3000 (Thermofisher L3000015). A construct with a mammalian expression vector containing a PGK promoter driving the expression of MED1 fused to GFP was co-transfected in high MED1 conditions. […]
For analysis of Lac array data comparing MED1 or HP1α tethered, a region of interest was called using the signal in the Lac array (561 channel). The average fluorescent signal for FLTX1 (488 channel) was then measured in the region of interest and divided by the average fluorescence in the region of interest at the Lac array. […] For analysis of Lac array data for MED1 overexpression, enrichment was calculated by dividing the average fluorescent signal for MED1 immunofluorescence at the region of interest, defined by the ER tethered at the lac array, by MED1 immunofluorescence signal at a random nuclear region.

[2] = test system: MED1 condensates at MYC in MCF7 cells; experiment: Immunofluorescence with DNA FISH, MED1 condensates at the MYC oncogene; format: cell-based, human; conditions: estrogen-starved MCF7 treated with estrogen or estrogen and tamoxifen
Description: MCF7 cells were grown in estrogen-free DMEM for 3 days on Poly-L-ornithine coated coverslips in 24 well plates at an initial seeding density of 50,000 cells per well. Cells were then treated with vehicle, 10 uM estradiol, or 10 uM estradiol and 5 uM 4-hydroxytamoxifen for 45 minutes.
Cells on cover slips were then fixed in 4% paraformaldehyde. Immunofluorescence was performed as described above. After incubating the cells with the secondary antibodies, cells were washed three times in PBS for 5 min at RT, fixed with 4% PFA in PBS for 10 min and washed three times in PBS. Cells were incubated in 70% ethanol, 85% ethanol and then 100% ethanol for 1 minute at RT. Probe hybridization mixture was made mixing […], of FISH Hybridization Buffer (Agilent G9400A), 1 μl of FISH probes (SureFISH 8q24.21 MYC 294 kb G101211R-8) and 2 μL of water.
5 μL of mixture was added on a slide and coverslip was placed on top (cell-side toward the hybridization mixture). Coverslip was sealed using rubber cement. Once rubber cement solidified, genomic DNA and probes were denatured at 78° C. for 5 minutes and slides were incubated at 16° C. in the dark O/N. The coverslip was removed from slide and incubated in pre-warmed Wash Buffer 1 (Agilent, G9401A) at 73° C. for 2 minutes and in Wash Buffer 2 (Agilent, G9402A) for 1 minute at RT. […]

ERα point mutations = conditions: reference (52); cited from earlier work
[3] = test system: patient-derived ERα mutants and MED1; experiment: In vitro droplet assay of patient-derived ERα mutants with MED1; format: biochemical, human; conditions: 100 μM estrogen, 100 μM tamoxifen

T1 sequence (Q15648 600-1581): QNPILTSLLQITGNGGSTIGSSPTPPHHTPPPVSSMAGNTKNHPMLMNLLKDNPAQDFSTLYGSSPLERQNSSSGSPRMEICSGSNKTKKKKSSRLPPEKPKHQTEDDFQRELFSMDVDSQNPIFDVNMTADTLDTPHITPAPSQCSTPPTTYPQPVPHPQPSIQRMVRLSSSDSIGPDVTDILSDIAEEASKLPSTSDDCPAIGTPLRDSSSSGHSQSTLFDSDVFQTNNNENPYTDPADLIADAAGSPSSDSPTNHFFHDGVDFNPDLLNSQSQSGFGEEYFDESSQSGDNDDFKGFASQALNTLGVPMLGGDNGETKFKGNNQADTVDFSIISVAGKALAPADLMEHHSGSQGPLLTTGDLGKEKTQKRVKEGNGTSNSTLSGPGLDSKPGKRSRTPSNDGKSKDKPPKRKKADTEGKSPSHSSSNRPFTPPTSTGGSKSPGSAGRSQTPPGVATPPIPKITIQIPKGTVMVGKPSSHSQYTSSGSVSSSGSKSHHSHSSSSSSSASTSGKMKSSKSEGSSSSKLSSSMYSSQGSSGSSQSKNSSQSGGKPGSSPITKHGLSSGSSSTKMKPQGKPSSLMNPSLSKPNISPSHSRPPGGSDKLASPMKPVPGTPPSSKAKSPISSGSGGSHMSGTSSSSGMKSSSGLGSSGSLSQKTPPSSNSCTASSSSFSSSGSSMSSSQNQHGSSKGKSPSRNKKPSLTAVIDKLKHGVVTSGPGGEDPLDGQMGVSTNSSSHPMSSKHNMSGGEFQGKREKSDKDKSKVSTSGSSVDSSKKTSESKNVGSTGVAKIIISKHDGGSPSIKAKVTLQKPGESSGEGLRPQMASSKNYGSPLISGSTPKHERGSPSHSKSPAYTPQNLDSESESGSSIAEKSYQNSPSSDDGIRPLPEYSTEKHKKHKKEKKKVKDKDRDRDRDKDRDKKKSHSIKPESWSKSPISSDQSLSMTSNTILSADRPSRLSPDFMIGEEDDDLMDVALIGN

For `CC/C(=C(\c1ccccc1)c1ccc(OCCN(C)C)cc1)c1ccccc1` [tamoxifen], the “chase out of FLTX1 from MED1 droplets” value (MED1 droplets) was “diluted out”, the “chase out of FLTX1 from MED1 droplets” value (MED1 droplets; listed as Tamoxifen) was “able to chase-out FLTX1” and the “effect on ERα-MED1 condensate at the Lac array when MED1 is overexpressed” value ([1]; MED1 overexpressed) was “unable to dissociate the ERα-MED1 condensate”. The “effect on ER/MED1 condensate at the Lac array” value [1] was “eliminated by tamoxifen”, the “effect on ER/MED1 condensate at the Lac array” value ([1]; listed as Tamoxifen) was “reduced ER (green) and MED1 (red) containing condensates” and the “MED1 condensates at the MYC oncogene” value [2] was “reduces these; also recorded: not in the absence of estrogen or in the presence of estrogen and tamoxifen”. The “reduction of affinity for tamoxifen by ERα point mutations” value (ERα point mutations) was “approximately 10 fold” and the “disruption of ERα mutant/MED1 condensates” value [3] was “not disrupted”.
